Consider one compound from EP4763841A1, “PYRIDAZINONE COMPOUND AND USE THEREOF” (Xi'an Xintong Pharmaceutical Research Co., Ltd., priority 2023, dated 2025).

Marks after values point to notes of the source that are not given here.

Assay [1] has as its target T1, THRβ (Homo sapiens, UniProt P10828).
T1 sequence (P10828 217-461 limits assumed): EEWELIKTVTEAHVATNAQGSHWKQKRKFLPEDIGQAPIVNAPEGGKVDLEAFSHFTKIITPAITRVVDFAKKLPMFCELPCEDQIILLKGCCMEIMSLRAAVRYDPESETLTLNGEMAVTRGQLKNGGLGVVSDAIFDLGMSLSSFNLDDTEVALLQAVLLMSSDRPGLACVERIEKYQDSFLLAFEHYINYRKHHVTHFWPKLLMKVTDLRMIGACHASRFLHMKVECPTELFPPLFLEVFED
Nature of the assay: HTRF test of agonist-induced SRC3-2 coactivator peptide recruitment to THRβ-LBD. The class given is biochemical. On the procedure:
1. Experiment of binding of compounds to THRβ and THRα
Test principle: The effect of test compounds on THRβ and THRα was tested by using a method of HTRF. An MAb Anti GST-Eu cryptate antibody binds to GST-tagged THRα-LBD (or THRβ-LBD), while Streptavidin-XL665 binds to a biotin-labeled SRC3-2 coactivator peptide. […] At the same time, the resulting decrease in the distance between XL665-labeled SRC3-2 and an Eu-anti-GST antibody increases a THRFRET signal. The agonistic capacity at this target was assessed by the effect of compounds on the activity of THRα-LBD (THRβ-LBD) at different concentrations.
Test method: THRβ test procedures:
• (1) a 1×reaction solution was prepared. • (2) Preparation of compounds: the compound test starting concentration was 20 µM, 3-fold dilution was performed, 10 concentrations were set, and duplicate testing was set for each concentration. 100-fold dilution was performed in a 384-well Source plate to a corresponding solution with a final concentration, and then 200 nL of the solution was transferred to a 384-well reaction plate with Echo550 to be tested. 200 nL of 100% DMSO and a test article were respectively transferred to Min and Max wells. • (3) A 2×protein solution was prepared from the 1×reaction solution. • (4) A 4×SRC3-2 solution was prepared from the 1×reaction solution. • (5) A mixed solution of 4×GST-Eu cryptate and XL665 was prepared from the 1×reaction solution. • (6) 10 µl of the 2×protein solution was added to each well of the reaction plate, centrifugation was performed at 1000 rpm for 1 min, and incubation was performed at room temperature for 30 min. • (7) 5 µl of the 4×SRC3-2 solution was added to each well of the reaction plate, and centrifugation was performed at 1000 rpm for 1 min. • (8) 5 µL of the mixed solution of 4×GST-Eu cryptate and XL665 was added to each well of the reaction plate, centrifugation was performed at 1000 rpm for 1 min, and incubation was performed at 25°C. • (9) A fluorescence signal was read by using EnVision.
Background: TR-FRET usually uses a lanthanide donor and a delayed reading to cut background.

For assay [2], the system named is NASH model of B-DIO mice. Nature of the assay: Efficacy test in NASH model of B-DIO mice (HFD + CCL4). The class given is in vivo. To be noted: for area proportion of lipid droplets in the liver (oil red O) compared with the model group G2: Day 26, result in words (FIG. 8); for liver fibrosis (Sirius red) compared with the model group G2: Day 26, result in words (FIG. 9). An excerpt: An objective of this experiment was to evaluate the pharmacodynamics of compounds of the present invention by using an NASH model of B-DIO mice.
Five C57BL/6 mice on normal diet were assigned to an experimental group G1, and 25 B-DIO mice were randomly assigned to five experimental groups according to the body weight, with 5 mice in each group.
The day of grouping was Day-1, intraperitoneal injection was started on Day 0 in the groups G2-G6 for CCL4 modeling, the concentration of a modeling agent is 0.2 µl/g, the modeling frequency was twice a week, and administration was started on Day 0.
The body weight was measured twice a week after grouping. At the end of the experiment (Day 26), the mice were fasted for 4 h, and non-anticoagulated blood of the mice in the groups G1-G6 was collected and centrifuged, and a serum was taken for blood biochemical testing. Livers in the groups G1-G6 were collected and weighed, 20 mg of the liver was weighed for determination of TC and TG, and the remaining liver was placed in formalin for fixation for pathological observation.

Setting [3] is: liver, Day 26, 0.3 mg/kg I.G. Q.D., HFD+CCL4, mean±standard error.
Where [4] appears, read: liver, Day 26, 1 mg/kg I.G. Q.D., HFD+CCL4, mean±standard error.
[5] abbreviates: liver, Day 26, 2 mg/kg I.G. Q.D., HFD+CCL4, mean±standard error.
Where [6] appears, read: serum, Day 26, 1 mg/kg I.G. Q.D., HFD+CCL4, mean±standard error.

Consider `[2H]C([2H])([2H])C(c1c(C)c(Oc2c(Cl)cc(-n3nc(CF)c(=O)[nH]c3=O)cc2Cl)n[nH]c1=O)C([2H])([2H])[2H]` [Compound 6], for which the EC50 – broadly, the concentration at which the effect is half-maximal – in assay [1] (HTRF, starting concentration 20 µM, 3-fold dilution, 10 concentrations, duplicate, read-out: THRβ (EC50)) is 6.5 nM. The “agonistic activity on THRβ compared with Resmetirom” value in assay [1] (result in words) is on record as “significantly better than that of Resmetirom”. Moreover, the “selectivity of agonistic effect for THRβ over THRα” value in assay [1] (result in words) is on record as “selective agonistic effects on THRβ”. Moreover, the “area proportion of lipid droplets in the liver (oil red O) compared with the model group G2” value in assay [2] (G4, 0.3 mg/kg) was “decreased significantly”; in assay [2] (G5, 1 mg/kg), “decreased significantly”; in assay [2] (G6, 2 mg/kg), “decreased significantly”. The “liver fibrosis (Sirius red) compared with the model group G2” value is “certain improvement effects on liver fibrosis” in assay [2] (G4, 0.3 mg/kg); “certain improvement effects on liver fibrosis” in assay [2] (G5, 1 mg/kg); “certain improvement effects on liver fibrosis” in assay [2] (G6, 2 mg/kg). Moreover, in assay [2] (G4-G6 (0.3, 1, 2 mg/kg) versus Resmetirom 3 mg/kg, result in words), the “effects of reducing liver fat accumulation and inhibiting liver fibroplasia compared with Resmetirom (G3)” value was “better effects of reducing liver fat accumulation and inhibiting liver fibroplasia than Resmetirom”. In assay [2] (group G4, 0.3 mg/kg, Day 26), the “decrease of liver TC compared with the model group G2” value worked out at 24.9%. In assay [2] (group G6, 2 mg/kg, Day 26), the “decrease of liver TG compared with the model group G2” value is 35.9%. Also, the figures for the “TC” value in assay [2] (setting [3]), in assay [2] (setting [4]) and in assay [2] (setting [5]) were 46.76 ± 1.53 µmol/g, 46.35 ± 1.39 µmol/g and 44.99 ± 1.87 µmol/g, respectively. In addition, the “TG” value in assay [2] (setting [3]) was 59.02 ± 2.79 µmol/g; in assay [2] (setting [4]) it was 54.34 ± 2.45 µmol/g; in assay [2] (setting [5]), 54.34 ± 3.54 µmol/g; in assay [2] (serum, Day 26, 0.3 mg/kg I.G. Q.D., HFD+CCL4, mean±standard error), 1.03 ± 0.06 mM; in assay [2] (setting [6]), 1.06 ± 0.07 mM; in assay [2] (serum, Day 26, 2 mg/kg I.G. Q.D., HFD+CCL4, mean±standard error), 1.06 ± 0.09 mM. In addition, in assay [2] (setting [6]), the “ALT (U/L)” value was determined as 1080.58±88.36 U/L. For the same compound, the “AST (U/L)” value in assay [2] (setting [6]) was 501.72±42.35* *** U/L.
